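GI50 is the concentration that inhibits growth by half. TGI is the concentration that stops growth completely.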
What was measured:
Assay in all cases: DTP human tumour cell line panel, 384-well format
NCI-H23 lung = system: NCI-H23 lung
SW-620 colon = system: SW-620 colon
HCT-116 colon = system: HCT-116 colon
NCI-H522 lung = system: NCI-H522 lung
MDA-MB-468 breast = system: MDA-MB-468 breast
SN12C renal = system: SN12C renal
OVCAR-4 ovarian = system: OVCAR-4 ovarian
A498 renal = system: A498 renal
A549 NSCLC = system: A549 NSCLC
HS 578T breast = system: HS 578T breast
HOP-62 NSCLC = system: HOP-62 NSCLC
UO-31 renal = system: UO-31 renal
HCT-15 colon = system: HCT-15 colon

Row | Structure (SMILES) | GI50 (NCI-H23 lung) | TGI (NCI-H23 lung) | GI50 (SW-620 colon) | TGI (SW-620 colon) | GI50 (HCT-116 colon) | TGI (HCT-116 colon) | GI50 (NCI-H522 lung) | TGI (NCI-H522 lung) | GI50 (MDA-MB-468 breast) | TGI (MDA-MB-468 breast) | GI50 (SN12C renal) | TGI (SN12C renal) | GI50 (OVCAR-4 ovarian) | TGI (OVCAR-4 ovarian) | GI50 (A498 renal) | TGI (A498 renal) | GI50 (A549 NSCLC) | TGI (A549 NSCLC) | GI50 (HS 578T breast) | TGI (HS 578T breast) | further results
1 | [2H]c1nc(C)nc([2H])c1-c1cc(NC[C@@H](C)c2cccc3c(C(=O)NC)ccnc23)ncn1 | > 100 µM | > 100 µM | > 100 µM | > 100 µM | > 100 µM | > 100 µM | > 100 µM | > 100 µM | > 100 µM | > 100 µM | > 100 µM | > 100 µM | > 100 µM | > 100 µM | > 100 µM | > 100 µM | > 100 µM | > 100 µM | > 100 µM | > 100 µM | GI50 (HOP-62 NSCLC): > 100 µM; TGI (HOP-62 NSCLC): > 100 µM; GI50 (UO-31 renal): > 100 µM; TGI (UO-31 renal): > 100 µM; GI50 (HCT-15 colon): > 100 µM; TGI (HCT-15 colon): > 100 µM
2 | CC(C)N(CCCNC(=O)Nc1ccc(C(C)(C)C)cc1)C[C@H]1O[C@@H](n2ccc3c(N)ncnc32)[C@H](O)[C@@H]1O | > 100 µM | > 100 µM | > 100 µM | > 100 µM | > 100 µM | > 100 µM | > 100 µM | > 100 µM | 23.1 µM | > 100 µM | > 100 µM | > 100 µM | > 100 µM | > 100 µM | > 100 µM | > 100 µM | > 100 µM | > 100 µM | > 100 µM | > 100 µM | GI50 (HOP-62 NSCLC): > 100 µM; TGI (HOP-62 NSCLC): > 100 µM; GI50 (UO-31 renal): > 100 µM; TGI (UO-31 renal): > 100 µM; GI50 (HCT-15 colon): > 100 µM; TGI (HCT-15 colon): > 100 µM
